In test [1] the test system is DLD-1 colorectal adenocarcinoma cells. Description: MTT assay. It is filed as cell-based, human. To be noted: Homo sapiens, DLD-1, MTT, M ± SD, n = 3, read-out: IC50. The method, then: (§1) DLD-1, HaCaT, and Balb/c 3T3 cells were maintained in DMEM, while HT-29 cells were grown in McCoy’s 5A medium with 10% FBS and 1% penicillin/streptomycin. All cell lines were incubated at 37 °C in a humidified atmosphere with 5% CO2. After detaching the cells with trypsin, they were quantified using a Scepter 3.0 automated cell counter (Millipore, Burlington, MA, USA).
(§2) The metabolic activity of cells exposed to the tested derivatives, doxorubicin, and DMSO, was assessed using an MTT assay according to the manufacturer’s protocol (Sigma-Aldrich, St. Louis, MO, USA). Adherent cells were seeded into 96-well plates (5000–10,000 cells in 100 µL of growth medium per well) and allowed to adhere overnight before treatment. For lymphocytes, activation with phytohemagglutinin-L (1 µg/mL) was performed for 24 h, after which they were seeded in 96-well plates at a density of 100,000 cells/well in RPMI-1640 medium supplemented with 20% FBS. The test substances, including Les-6547, Les-6557, and doxorubicin, were added to 100 µL of culture medium to achieve final concentrations of 0 µM, 0.1 µM, 1 µM, 2.5 µM, 10 µM, and 100 µM for all compounds, and the cells were further incubated for 24, 48, or 72 h. DMSO-treated cells served as the control. Then, 20 µL of MTT solution (5 mg/mL) was added and incubated for 2–4 h to allow formazan crystal formation. The formazan crystals were then solubilized by adding DMSO. The absorbance of formazan was measured at 570 nm using a ThermoScientific Evolution 201 UV-VIS spectrophotometer (ThermoFisher Scientific, Waltham, MA, USA). The control condition with 0.5% DMSO was considered 100% viability. The IC50 values for the compounds were determined using GraphPad Prism 8 and 9 software (GraphPad Software, Boston, MA, USA).

Test [2] relates to Balb/c 3T3 (mouse fibroblasts). Description: MTT assay. It is filed as cell-based. The following applies: BALB/c3T3, Balb/c 3T3, MTT, 72 h, M ± SD, n = 3. The procedure: as §1, §2
(Formazan colour is commonly taken as a measure of viable cells.)

The subject of test [3] is HT-29 colorectal adenocarcinoma cells. The test is described as follows: MTT assay. It is filed as cell-based. To be noted: Homo sapiens, HT-29, MTT, M ± SD, n = 3, read-out: IC50. The procedure:
as §1, §2

In test [4] the test system is HaCaT (human keratinocytes). The test is described as follows: MTT assay. Format: cell-based. To be noted: 72 h, M ± SD, n = 3. The method, then:
as §1, §2

A further test relates to Human blood lymphocytes. Description: MTT assay. Format: cell-based. To be noted: Lymphocyte, human blood lymphocytes, 72 h, M ± SD, n = 3. The method, then: Lymphocytes from human peripheral blood were isolated with sodium heparin (10 U/mL) as an anticoagulant. Isolation was performed through a density gradient method with the Gradisol G, following a modified procedure. Peripheral blood was mixed with Gradisol G in equal proportions (1:1) and centrifuged at 400× g for 30 min at room temperature. The cells were collected, washed in phosphate-buffered saline (PBS), and treated with a hypotonic solution to remove residual erythrocytes. Lymphocytes were activated by phytohemagglutinin-L (1 µg/mL) and cultured in RPMI-1640 medium supplemented with 20% fetal bovine serum under controlled conditions of 95% air and 5% CO2 [27].
as §2

Test [5] deals with DLD-1 colorectal adenocarcinoma cells. The test is described as follows: Colony forming (clonogenic) assay. Format: cell-based, human. The method, then:
(§3) For colony forming assay, HT-29 and DLD-1 cells were seeded in 12-well plates at a density of 500 cells in 2 mL of growth medium per well. After overnight incubation, the cells were exposed to the compounds Les-6547, Les-6557, and doxorubicin at concentrations ranging from 0.1 to 100 µM for 72 h. Following treatment, the medium was replaced with fresh medium without the compounds. After 14 days of culture, cells were rinsed with PBS and fixed with cold methanol for 10 min. Subsequently, the cells were stained with a 0.1% crystal violet solution for 10 min. After washing, the plates were allowed to dry at room temperature. Numbers of colonies were quantified using ImageJ software (version 1.5.4; National Institutes of Health, Bethesda, MD, USA). The effect of the compounds on the colony-forming capacity was calculated as a percentage of colonies relative to the untreated control group.

The subject of test [6] is HT-29 colorectal adenocarcinoma cells. The test is described as follows: Colony forming (clonogenic) assay. It is filed as cell-based, human. To be noted: Homo sapiens. The procedure: as §3
In test [7] the test system is DLD-1 colorectal adenocarcinoma cells. The test is described as follows: [^3H]-thymidine incorporation assay (DNA biosynthesis). It is filed as cell-based. To be noted: Homo sapiens; DLD-1, 24 h, M ± SD, n = 3. The method, then:
(§4) The anti-proliferative potential of Les-6547 and Les-6557 was analyzed using a clonogenic assay and incorporation of radioactive [^3H]-thymidine into the DNA of colorectal adenocarcinoma HT-29 and DLD-1 cell lines after 24 h of incubation with various concentrations of the tested agents.
(§5) Next, we examined the effects of the tested compounds on the proliferative activity of human colorectal adenocarcinoma cells by assessing their ability to influence DNA biosynthesis using the thymidine incorporation assay (Figure 6, Table 8). Les-6547 decreased DNA biosynthesis in DLD-1 cells to 50% at a concentration of 2.19 ± 0.39 µM.
A general note: Uptake of a labelled nucleoside into DNA is a usual measure of proliferation.

In test [8] the test system is HT-29 colorectal adenocarcinoma cells. The test is described as above. Format: cell-based. The following applies: Homo sapiens; HT-29, 24 h, M ± SD, n = 3. The procedure: as §4, §5

Molecules are shown by their SMILES.

The term IC50 denotes the concentration at which inhibition is half-maximal. One may read the inhibition as the percentage by which the read-out fell short of the control. Regarding `COc1cccc2c1C(=O)c1c(O)c3c(c(O)c1C2=O)C[C@@](O)(C(=O)CO)C[C@@H]3O[C@H]1C[C@H](N)[C@H](O)[C@H](C)O1` [Doxorubicin, doxorubicin, reference compound], the IC50 in [1] (24 h) is 65300 ± 6080 nM; in [1] (48 h), 2010 ± 90 nM; in [1] (72 h), 760 ± 100 nM; in [2] it was 560 ± 110 nM; in test [3] (24 h), 17000 ± 880 nM; in test [3] (48 h) it was 1550 ± 140 nM. For the same compound, the IC50 was 2110 ± 60 nM in test [3] (72 h); 900 ± 100 nM in test [4]; 710 ± 110 nM with Human blood lymphocytes; 3230 ± 50 nM in test [5] (Homo sapiens, DLD-1, 72 h treatment, 14 days of incubation, M ± SD, n = 3); roughly 500 nM in test [6] (HT-29, 72 h treatment, 14 days of incubation, n = 3); 6390 ± 20 nM in [7]. 4720 ± 800 nM corresponded to half-maximal inhibition in test [8] (IC50). This compound also registered a colony growth in [5] (DLD-1, 10 µM) of 3.86%. Further, the inhibition at 1 µM in test [6] (HT-29, 1 µM, read-out: inhibition of colony formation) was determined as 100%.

The record behind these values is article PMC11941218, “Juglone-Bearing Thiopyrano[2,3-d]thiazoles Induce Apoptosis in Colorectal Adenocarcinoma Cells” (Cells, 2025).
